This experiment addresses T1, FLT3 (Homo sapiens, UniProt P36888).
T1 construct: purchased Thermo Fisher Scientific (Life Technologies) SelectScreen
Put plainly: SelectScreen Z'LYTE. The class given is biochemical. In short, it runs like this:
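Percent values come from Thermo SelectScreen profiling of NU5455, combining activity and binding assays. CSF1R was run in Z'LYTE format at Km app ATP, and CAMK1 in Adapta format with ATP listed at 10.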

T1 sequence (P36888 27-993): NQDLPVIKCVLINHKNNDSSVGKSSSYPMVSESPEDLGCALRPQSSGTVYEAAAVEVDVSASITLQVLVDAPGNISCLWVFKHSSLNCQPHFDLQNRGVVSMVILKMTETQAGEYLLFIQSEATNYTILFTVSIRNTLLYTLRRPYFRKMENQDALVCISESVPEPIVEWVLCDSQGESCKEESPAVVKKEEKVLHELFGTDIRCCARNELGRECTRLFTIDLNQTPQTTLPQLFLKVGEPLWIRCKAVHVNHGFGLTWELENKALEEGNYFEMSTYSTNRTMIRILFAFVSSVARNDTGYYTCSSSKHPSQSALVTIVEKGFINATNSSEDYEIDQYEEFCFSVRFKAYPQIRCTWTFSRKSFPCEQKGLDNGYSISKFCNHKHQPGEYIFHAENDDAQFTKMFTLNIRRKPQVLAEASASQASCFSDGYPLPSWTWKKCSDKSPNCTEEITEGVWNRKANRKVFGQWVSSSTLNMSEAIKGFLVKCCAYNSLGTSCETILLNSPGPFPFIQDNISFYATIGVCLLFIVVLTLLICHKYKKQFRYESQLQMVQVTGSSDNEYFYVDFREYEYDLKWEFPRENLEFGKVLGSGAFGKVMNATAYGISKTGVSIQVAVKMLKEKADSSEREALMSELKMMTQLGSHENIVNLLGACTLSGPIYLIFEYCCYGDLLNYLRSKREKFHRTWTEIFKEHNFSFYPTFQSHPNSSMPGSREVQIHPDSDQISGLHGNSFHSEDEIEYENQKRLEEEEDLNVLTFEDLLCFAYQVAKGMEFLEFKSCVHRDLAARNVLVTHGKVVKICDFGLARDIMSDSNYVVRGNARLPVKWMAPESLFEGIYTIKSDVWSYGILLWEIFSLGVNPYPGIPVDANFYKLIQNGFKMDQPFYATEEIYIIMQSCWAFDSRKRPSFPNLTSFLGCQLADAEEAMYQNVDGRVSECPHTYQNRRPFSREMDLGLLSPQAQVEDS

In turn, `CN(C(=O)CN1CCOCC1)c1ccc2sc3c(-c4cccc5c(=O)cc(N6CC7CCC(C6)O7)oc45)cccc3c2c1` [NU5455] had an inhibition at 1 µM of 9.1%.
